# Marks after values point to notes of the source that are not given here.
# System: CA1 pyramidal cell layer of organotypic hippocampal slice cultures
# Test: Hypoxic neuronal damage in organotypic hippocampal slice cultures (propidium iodide fluorescence)
# Assay type: cell-based, Wistar rat
# Conditions: for neuroprotective effect (in words): 300 μM added 30 minutes prior to hypoxia, during hypoxia and the 24 hour recovery period
# Procedure: Hypoxic neuronal damage was studied using organotypic hippocampal slice cultures [Pringle A. K. et al. (1996 Stroke 27 2124-2130)].
# Cultures were prepared according to the method of Stoppini et al (1991 J. Neurosci. Meth. 37 173-182) from 8-10 day old Wistar rat pups (Bioresources Unit, University of Southampton). Cultures were maintained in vitro for 14 days (37° C., 5% CO2) during which the medium (50% minimum essential medium (MEM), 25% Hank's balanced salt solution (HBSS), 25% heat-inactivated horse serum, supplemented with 1 mM glutamine, 5 mg/ml glucose and 1.5% fungizone) was changed every 3 days. Hypoxia was induced by replacing culture medium with serum-free (SF) medium (75% MEM, 25% HBSS, 1 mM glutamine, 5 mg/ml glucose, 1.5% fungizone) saturated with 95% N2/5% CO2 (and thus oxygen-free), and placing cultures in an air-tight chamber in which the atmosphere was also saturated with N2/CO2. After 180 minutes hypoxia, cultures were replated in normoxic SF medium and replaced in the incubator for 24 hours. Compounds were added to cultures either pre-, during and post-hypoxia (herein abbreviated to “pdp”) or just in the post-hypoxic recovery period (“post”) [Johnson, T. D. (1996 Trends Pharmacol. Sci. 22-27)]. Cell damage was evaluated using the fluorescent exclusion dye propidium iodide (PI, 5 μg/ml) which is normally excluded from healthy cells, but enters cells with damaged plasma membranes and becomes highly fluorescent when bound to DNA. Neuronal cell damage was quantified using the “NIH Image 1.55” software (written by Wayne Rasband at the U.S. National Institutes for Health and available from the internet by anonymous ftp from zippy.nimh.nih.gov). Briefly, the area of the CA1, CA3 and dentate gyrus (DG) cell layers was measured from a transmission image. 24 hours after the commencement of hypoxia, a fluorescence image was captured using a standard Leica inverted fluorescence microscope fitted with a rhodamine filter set. The area of PI fluorescence above background in the neuronal cell layers was determined using the density slice function of Image. Cellular damage is expressed as the percentage area of the cell body layers in which PI fluorescence was detectable. After imaging, cultures were fixed overnight in 4% paraformaldehyde and stained with thionin.
# Data are expressed as the mean±sem. Data from the non-drug groups was pooled before analysis. Statistical significance was determined using one-way analysis of variance (ANOVA) followed by post-hoc non-paired Student's t-tests. As only cells within the CA1 region were susceptible to hypoxia-induced damage, all of the pharmacological data was calculated for this region alone.
# Table 1 represents the quantification of the percentage area of the CA1 pyramidal cell layer in which PI fluorescence was detectable 24 hours after 3 hours of hypoxia (% Damage CA1). Data from all of the cultures exposed to hypoxia alone were pooled (control hypoxia). The percentage neuroprotection was calculated as the (((% damage control hypoxia-% damage drug treated)/% damage control hypoxia) 100). Data are expressed as the mean±sem, n=number of cultures, *p<0.05, **<0.01, ***p<0.001 vs hypoxia control.
smiles,measurement,setting,value
"N=C(N)NCCCC(N)C(=O)NCCCNCCCCN [Compound A, N′-L-Arginylspermidine]",neuroprotective effect (in words),,complete protection
same,neuroprotective effect (in words),listed as L-ArgSp,completely neuroprotective
same,neuroprotective effect / reduction of PI fluorescence in CA1 (in words),300 μM added post-hypoxia,significant protective effect
same,neuroprotective effect / reduction of PI fluorescence in CA1 (in words),"300 μM added post-hypoxia, listed as L-ArgSp",significant neuroprotective effect
same,concentration dependence of the neuroprotective effect,0.3-300 μM added immediately post-hypoxia,concentration dependent
same,EC50,"Rattus norvegicus, added immediately post-hypoxia, 0.3-300 μM, read-out: EC50 of the neuroprotective effect",3 to 30 µM
same,% Damage CA1,"Table 1, 300 μM added post-hypoxia, 3 h hypoxia, PI at 24 h, control hypoxia 35.6 ± 1.43, mean±sem",9.9 ± 3.5*** %
same,% Protection,"Table 1, 300 μM added post-hypoxia, vs control hypoxia",> 70%
same,% Protection,"Table 1, 300 μM added post-hypoxia, vs control hypoxia, listed as L-ArgSp",72.2%
same,% Damage CA1,"Table 1, 300 μM added pre-, during and post-hypoxia (pre), 3 h hypoxia, PI at 24 h, control hypoxia 35.6 ± 1.43, mean±sem, listed as L-ArgSp",0.2±0.02%
same,% Protection,"Table 1, 300 μM added pre-, during and post-hypoxia (pre), vs control hypoxia",99.4%
same,% Protection,"Table 3, 0.3 μM pdp, fresh batch",15.5%
same,% Damage CA1,"Table 3, 0.3 μM pdp, fresh batch, control hypoxia 23.9 ± 2.7",20.2 ± 8.4%
same,% Protection,"Table 3, 1 μM pdp, fresh batch",15.9%
same,% Damage CA1,"Table 3, 1 μM pdp, fresh batch, control hypoxia 23.9 ± 2.7",20.1 ± 8.2%
same,% Protection,"Table 3, 3 μM pdp, fresh batch",72.8%
same,% Damage CA1,"Table 3, 3 μM pdp, fresh batch, control hypoxia 23.9 ± 2.7",6.5 ± 3.0** %
same,% Protection,"Table 3, 10 μM pdp, fresh batch",63.2%
same,% Damage CA1,"Table 3, 10 μM pdp, fresh batch, control hypoxia 23.9 ± 2.7",8.8 ± 3.9* %
same,% Protection,"Table 3, 30 μM pdp, fresh batch",65.9%
same,% Damage CA1,"Table 3, 30 μM pdp, fresh batch, control hypoxia 23.9 ± 2.7",7.3 ± 4.2* %
same,% Protection,"Table 3, 300 μM pdp, fresh batch",66.5%
same,% Damage CA1,"Table 3, 300 μM pdp, fresh batch, control hypoxia 23.9 ± 2.7",8.0 ± 3.0** %
same,% Protection,"Table 7, 300 μM post",56.3%
same,% Damage CA1,"Table 7, 300 μM post, hypoxia control 27.7 ± 3.1",12.1 ± 3.5** %
